Assay results published in ChEMBL document CHEMBL6177973, “A Novel Compound 3a-M1, from Metabolites of Sinomenine Derivative 3a, Exerts Potent Anti-Aplastic Anemia Activity via IP3R/ORAI-Mediated CTL Ferroptosis” (J Med Chem, 2025).
Activity calls are given as the source filed them. No cut-off for these calls is given here.

What was measured:
[1] = Drug metabolism in rat plasma assessed as double hydrolyzation-mediated metabolite formation at 50 mg/kg, po measured for 24 hrs by HRMS analysis; format: ADME, organism-based; settings: in vivo
[2] = Drug metabolism in rat plasma assessed as (4bR,9S)-1-(hydroxymethyl)-3,7-dimethoxy-11-methyl-6-oxo-6,8a,9,10-tetrahydro-5H-9,4b-(epiminoethano)phenanthren-4-yl cinnamate metabolite formation at 50 mg/kg, po measured for 24 hrs by HRMS analysis; format: ADME, organism-based; settings: in vivo
[3] = Drug metabolism in Sprague-Dawley rat plasma assessed as cinnamic acid metabolite formation at 50 mg/kg, po measured for 24 hrs by HPLC analysis; format: ADME, organism-based; settings: in vivo
[4] = Drug metabolism in Sprague-Dawley rat plasma assessed as (4bR,9S)-1-(hydroxymethyl)-3,7-dimethoxy-11-methyl-6-oxo-6,8a,9,10-tetrahydro-5H-9,4b-(epiminoethano)phenanthren-4-yl cinnamate metabolite formation at 5 mg/kg, iv measured for 24 hrs by HPLC analysis; format: ADME, organism-based; settings: in vivo
[5] = Stability in mouse small intestine assessed as compound remaining at 50 mg/kg, po measured for 0.083 to 8 hrs by HPLC analysis; format: ADME, organism-based; settings: in vivo, time 0.083-8 hrs
[6] = Drug metabolism in mouse kidney assessed as (4bR,9S)-1-(hydroxymethyl)-3,7-dimethoxy-11-methyl-6-oxo-6,8a,9,10-tetrahydro-5H-9,4b-(epiminoethano)phenanthren-4-yl cinnamate metabolite formation at 50 mg/kg, po measured for 0.083 to 8 hrs by HPLC analysis; format: ADME, organism-based; settings: in vivo, time 0.083-8 hrs
[7] = Stability in rat plasma at 37 degreeC; format: ADME, cell-free
[8] = Drug metabolism in Sprague-Dawley rat plasma assessed as (4bR,9S)-1-(hydroxymethyl)-3,7-dimethoxy-11-methyl-6-oxo-6,8a,9,10-tetrahydro-5H-9,4b-(epiminoethano)phenanthren-4-yl cinnamate metabolite formation at 50 mg/kg, po measured for 24 hrs by HPLC analysis; format: ADME, organism-based; settings: in vivo
[9] = Drug metabolism in mouse lymph node assessed as (4bR,9S)-1-(hydroxymethyl)-3,7-dimethoxy-11-methyl-6-oxo-6,8a,9,10-tetrahydro-5H-9,4b-(epiminoethano)phenanthren-4-yl cinnamate metabolite formation at 50 mg/kg, po measured for 0.083 to 8 hrs by HPLC analysis; format: ADME, organism-based; settings: in vivo, time 0.083-8 hrs
CTLL-2 [10] = test: Induction of ferroptosis in mouse CTLL-2 cells assessed as increase in intracellular lipid peroxidation level at 30 uM incubated for 16 hrs by flow cytometry; format: functional, cell-based
CTLL-2 [11] = test: Induction of ferroptosis in IL-2-stimulated mouse CTLL-2 cells assessed as increase in p-p38 level at 30 uM incubated for 6 hrs followed by Fer-1 addition measured after 10 hrs by Western blot analysis; format: functional, cell-based; settings: time 16.0 hrs
CTLL-2 [12] = test: Induction of ferroptosis in IL-2-stimulated mouse CTLL-2 cells assessed as increase in pMEK level at 30 uM incubated for 6 hrs followed by Fer-1 addition measured after 10 hrs by Western blot analysis; format: functional, cell-based; settings: time 16.0 hrs
CD8-positive T cell [13] = test: Inhibition of CD3/CD28-activated CD8-positive T cell activation in BALB/c mouse lymph nodes assessed as decrease in IFN-gamma level at 1 to 10 uM incubated for 72 hrs by ELISA; format: functional, tissue-based; settings: Lymph node, dose 1-10 µM
Mus musculus = test: Anti-aplastic anemia activity in BALB/c mouse model of immune-mediated bone marrow failure assessed as decrease in abnormal proportion of lymphocytes in bone marrow at 10 mg/kg, po treated for 14 days by H and E staining based analysis; format: functional, organism-based; settings: time 14.0 day
CD8-positive T cell [14] = test: Inhibition of CD3/CD28-activated CD8-positive T cell activation in BALB/c mouse lymph nodes assessed as decrease in CD69 expression level at 1 to 10 uM incubated for 72 hrs by flow cytometry; format: functional, tissue-based; settings: Lymph node, dose 1-10 µM
HepG2 = test: Induction of ferroptosis in human HepG2 cells assessed as increase in intracellular Ca2+ concentration at 10 uM by Fluo-4 AM dye based analysis; format: functional, cell-based

SMILES	Drug metabolism [1]	Drug metabolism [2]	Drug metabolism [3]	Drug metabolism [4]	Stability [5]	Drug metabolism [6]	Stability [7]	Drug metabolism [8]	Drug metabolism [9]	Activity (CTLL-2 [10])	Activity (CTLL-2 [11])	Activity (CTLL-2 [12])	inhibition (CD8-positive T cell [13])	Activity (Mus musculus)	inhibition (CD8-positive T cell [14])	Activity (HepG2)
COC1=C[C@@H]2[C@@H]3Cc4c(COC(=O)/C=C/c5ccccc5)cc(OC)c(OC(=O)/C=C/c5ccccc5)c4[C@]2(CCN3C)CC1=O	metabolite_detected	metabolite_detected	metabolite_detected	metabolite_detected	Stable	metabolite_detected	Unstable	metabolite_detected	metabolite_detected							
COC1=C[C@@H]2[C@@H]3Cc4c(CO)cc(OC)c(OC(=O)/C=C/c5ccccc5)c4[C@]2(CCN3C)CC1=O										Active	inactive	inactive	Active	Active	Active	Not active; Elevation Was Smaller Than In Mouse Ctll-2 Cells
